Test results published in ChEMBL document CHEMBL5608186, “Design, synthesis and structure-activity relationships of novel non-ketolides: 9-Oxime clarithromycin featured with seven-to thirteen-atom-length diamine linkers at 3-OH” (Eur J Med Chem, 2024).
Values after ≈ are worked out from the molar mass of the structure shown.

How the values were obtained:
Format in all cases: functional
[1] = system: Streptococcus pneumoniae; experiment: Bactericidal activity against Streptococcus pneumoniae PU 09 harboring mef gene incubated for 16 to 20 hrs by CLSI based broth microdilution method; conditions: time 16-20 hrs
[2] = system: Streptococcus pneumoniae; experiment: Selectivity ratio of MBC for Streptococcus pneumoniae PU 09 harboring mef gene to MIC for Streptococcus pneumoniae PU 09 harboring mef gene
[3] = system: Streptococcus pneumoniae; experiment: Bactericidal activity against Streptococcus pneumoniae ATCC 49619 incubated for 16 to 20 hrs by CLSI based broth microdilution method; conditions: time 16-20 hrs
[4] = system: Streptococcus pyogenes; experiment: Bactericidal activity against Streptococcus pyogenes 01-968 harboring i-ermB gene incubated for 16 to 20 hrs by CLSI based broth microdilution method; conditions: time 16-20 hrs
[5] = system: Haemophilus influenzae; experiment: Selectivity ratio of MBC for Haemophilus influenzae ATCC 49247 to MIC for Haemophilus influenzae ATCC 49247
[6] = system: Staphylococcus aureus; experiment: Bactericidal activity against methicillin-resistant Staphylococcus aureus PU 32 harboring i-ermA gene incubated for 16 to 20 hrs by CLSI based broth microdilution method; conditions: time 16-20 hrs
[7] = system: Staphylococcus aureus; experiment: Selectivity ratio of MBC for methicillin-resistant Staphylococcus aureus PU 20 harboring c-ermA gene to MIC for methicillin-resistant Staphylococcus aureus PU 20 harboring c-ermA gene
[8] = system: Haemophilus influenzae; experiment: Bactericidal activity against Haemophilus influenzae ATCC 49247 incubated for 16 to 20 hrs by CLSI based broth microdilution method; conditions: time 16-20 hrs
[9] = system: Haemophilus influenzae; experiment: Antibacterial activity against Haemophilus influenzae ATCC 49247 incubated for 16 to 20 hrs by CLSI based broth microdilution method; conditions: time 16-20 hrs
[10] = system: Staphylococcus aureus; experiment: Antibacterial activity against methicillin-resistant Staphylococcus aureus PU 32 harboring i-ermA gene incubated for 16 to 20 hrs by CLSI based broth microdilution method; conditions: time 16-20 hrs
[11] = system: Staphylococcus aureus; experiment: Bactericidal activity against methicillin-resistant Staphylococcus aureus PU 20 harboring c-ermA gene incubated for 16 to 20 hrs by CLSI based broth microdilution method; conditions: time 16-20 hrs
[12] = system: Streptococcus pneumoniae; experiment: Selectivity ratio of MBC for Streptococcus pneumoniae ATCC 49619 to MIC for Streptococcus pneumoniae ATCC 49619
[13] = system: Streptococcus pneumoniae; experiment: Antibacterial activity against Streptococcus pneumoniae ATCC 49619 incubated for 16 to 20 hrs by CLSI based broth microdilution method; conditions: time 16-20 hrs
[14] = system: Streptococcus pyogenes; experiment: Selectivity ratio of MBC for Streptococcus pyogenes 01-968 harboring i-ermB gene to MIC for Streptococcus pyogenes 01-968 harboring i-ermB gene
[15] = system: Streptococcus pneumoniae; experiment: Bactericidal activity against Streptococcus pneumoniae 07P390 harboring c-erm gene incubated for 16 to 20 hrs by CLSI based broth microdilution method; conditions: time 16-20 hrs
[16] = system: Streptococcus pyogenes; experiment: Antibacterial activity against Streptococcus pyogenes 01-968 harboring i-ermB gene incubated for 16 to 20 hrs by CLSI based broth microdilution method; conditions: time 16-20 hrs
[17] = system: Staphylococcus aureus; experiment: Selectivity ratio of MBC for methicillin-resistant Staphylococcus aureus PU 32 harboring i-ermA gene to MIC for methicillin-resistant Staphylococcus aureus PU 32 harboring i-ermA gene
[18] = system: Streptococcus pneumoniae; experiment: Antibacterial activity against Streptococcus pneumoniae 07P390 harboring c-erm gene incubated for 16 to 20 hrs by CLSI based broth microdilution method; conditions: time 16-20 hrs
[19] = system: Staphylococcus aureus; experiment: Antibacterial activity against methicillin-resistant Staphylococcus aureus PU 20 harboring c-ermA gene incubated for 16 to 20 hrs by CLSI based broth microdilution method; conditions: time 16-20 hrs
[20] = system: Streptococcus pneumoniae; experiment: Selectivity ratio of MBC for Streptococcus pneumoniae 07P390 harboring c-erm gene to MIC for Streptococcus pneumoniae 07P390 harboring c-erm gene
[21] = system: Streptococcus pneumoniae; experiment: Antibacterial activity against Streptococcus pneumoniae PU 09 harboring mef gene incubated for 16 to 20 hrs by CLSI based broth microdilution method; conditions: time 16-20 hrs
[22] = Inhibition of Escherichia coli DNA supercoiling assessed as reduction in protein synthesis by firefly luciferase gene assay
[23] = system: Escherichia coli; experiment: Antibacterial activity against Escherichia coli SQ110 DTC harboring 23S rRNA A2058G/Gyr A Ser83Leu mutant incubated for 16 to 20 hrs by CLSI based broth microdilution method; conditions: time 16-20 hrs
[24] = system: Escherichia coli; experiment: Selectivity ratio of MIC for Escherichia coli SQ110 DTC harboring 23S rRNA A2058G mutant to MIC for wild-type Escherichia coli SQ110 DTC
[25] = system: Escherichia coli; experiment: Antibacterial activity against Escherichia coli SQ110 DTC harboring 23S rRNA A2058G mutant incubated for 16 to 20 hrs by CLSI based broth microdilution method; conditions: time 16-20 hrs
[26] = system: Escherichia coli; experiment: Selectivity ratio of MIC for Escherichia coli SQ110 DTC harboring 23S rRNA A2058G/Gyr A Ser83Leu mutant to MIC for wild-type Escherichia coli SQ110 DTC
[27] = system: Escherichia coli; experiment: Antibacterial activity against wild-type Escherichia coli SQ110 DTC incubated for 16 to 20 hrs by CLSI based broth microdilution method; conditions: time 16-20 hrs
[28] = system: Escherichia coli; experiment: Selectivity ratio of MIC for Escherichia coli SQ110 DTC harboring Gyr A Ser83Leu mutant to MIC for wild-type Escherichia coli SQ110 DTC
[29] = system: Escherichia coli; experiment: Antibacterial activity against Escherichia coli SQ110 DTC harboring Gyr A Ser83Leu mutant incubated for 16 to 20 hrs by CLSI based broth microdilution method; conditions: time 16-20 hrs

| SMILES | MBC [1] | Selectivity ratio [2] | MBC [3] | MBC [4] | Selectivity ratio [5] | MBC [6] | Selectivity ratio [7] | MBC [8] | MIC [9] | MIC [10] | MBC [11] | Selectivity ratio [12] | MIC [13] | Selectivity ratio [14] | MBC [15] | MIC [16] | MIC [18] | MIC [19] | Selectivity ratio [20] | MIC [21] | also measured |
| --- | --- | --- | --- | --- | --- | --- | --- | --- | --- | --- | --- | --- | --- | --- | --- | --- | --- | --- | --- | --- | --- |
| CC[C@H]1OC(=O)[C@H](C)[C@@H](OC(=O)CCNCCCNc2cc3c(=O)c(C(=O)O)cn(C4CC4)c3cc2Cl)[C@H](C)[C@@H](O[C@@H]2O[C@H](C)C[C@H](N(C)C)[C@H]2O)[C@](C)(OC)C[C@@H](C)/C(=N\OC)[C@H](C)[C@H]2OC(=O)O[C@@]21C | 2 µg/mL (≈ 1.93 µM) | 1 | 0.5 µg/mL (≈ 0.483 µM) | 16 µg/mL (≈ 15.5 µM) | 1 | > 256 µg/mL | 2 | 256 µg/mL (≈ 247 µM) | 256 µg/mL (≈ 247 µM) | 32 µg/mL (≈ 30.9 µM) | 256 µg/mL (≈ 247 µM) | 2 | 0.25 µg/mL (≈ 0.242 µM) | 4 | 16 µg/mL (≈ 15.5 µM) | 4 µg/mL (≈ 3.87 µM) | 8 µg/mL (≈ 7.73 µM) | 128 µg/mL (≈ 124 µM) | 2 | 2 µg/mL (≈ 1.93 µM) | Selectivity ratio [17]: >8 |
| CC[C@H]1OC(=O)[C@H](C)[C@@H](OC(=O)CCN2CCN(c3cc4c(cc3F)c(=O)c(C(=O)O)cn4C3CC3)CC2)[C@H](C)[C@@H](O[C@@H]2O[C@H](C)C[C@H](N(C)C)[C@H]2O)[C@](C)(OC)C[C@@H](C)/C(=N\OCCCc2cncc(C(=O)NC)c2)[C@H](C)[C@H]2OC(=O)O[C@@]21C | 0.12 µg/mL (≈ 0.101 µM) | 4 | 0.03 µg/mL (≈ 0.0252 µM) | > 32 µg/mL | 1 | > 256 µg/mL | >4 | 2 µg/mL (≈ 1.68 µM) | 2 µg/mL (≈ 1.68 µM) | 64 µg/mL (≈ 53.7 µM) | > 256 µg/mL | 2 | 0.016 µg/mL (≈ 0.0134 µM) | >8 | 16 µg/mL (≈ 13.4 µM) | 4 µg/mL (≈ 3.35 µM) | 2 µg/mL (≈ 1.68 µM) | 64 µg/mL (≈ 53.7 µM) | 8 | 0.03 µg/mL (≈ 0.0252 µM) | Selectivity ratio [17]: >4 |
| CC[C@H]1OC(=O)[C@H](C)[C@@H](OC(=O)Cc2ccccn2)[C@H](C)[C@@H](O[C@@H]2O[C@H](C)C[C@H](N(C)C)[C@H]2O)[C@](C)(OC(=O)CCN2CCN(c3c(F)cc4c(=O)c(C(=O)O)cn(C5CC5)c4c3OC)CC2C)C[C@@H](C)CN(C)[C@H](C)[C@@H](O)[C@]1(C)O (stereo not given in full) | 8 µg/mL (≈ 7.02 µM) | 4 | 1 µg/mL (≈ 0.878 µM) | > 64 µg/mL | 1 | > 256 µg/mL | 1 | 0.5 µg/mL (≈ 0.439 µM) | 0.5 µg/mL (≈ 0.439 µM) | 128 µg/mL (≈ 112 µM) | 8 µg/mL (≈ 7.02 µM) | 2 | 0.5 µg/mL (≈ 0.439 µM) | >8 | 8 µg/mL (≈ 7.02 µM) | 8 µg/mL (≈ 7.02 µM) | 8 µg/mL (≈ 7.02 µM) | 8 µg/mL (≈ 7.02 µM) | 1 | 2 µg/mL (≈ 1.76 µM) |  |
| CC[C@H]1OC(=O)[C@H](C)[C@@H](O[C@H]2C[C@@](C)(OC)[C@@H](O)[C@H](C)O2)[C@H](C)[C@@H](O[C@@H]2O[C@H](C)C[C@H](N(C)C)[C@H]2O)[C@](C)(O)C[C@@H](C)C(=O)[C@H](C)[C@@H](O)[C@]1(C)O [ERYTHROMYCIN] |  |  |  |  |  |  |  |  |  |  |  |  |  |  |  |  |  |  |  |  | IC50 [22]: 1100 nM; MIC [23]: > 128 µg/mL; Selectivity ratio [24]: >64; MIC [25]: > 128 µg/mL; Selectivity ratio [26]: >64; MIC [27]: 2 µg/mL (≈ 2.73 µM); Selectivity ratio [28]: 1; MIC [29]: 2 µg/mL (≈ 2.73 µM) |
